Laboratory results: patent publication US5726186A, “Pentacyclic compounds, intermediates, processes, compositions, and methods” (Eli Lilly and Company, priority 1996, dated 1998)

Legend:
Distal Femur Metaphysis = assay: Osteoporosis test, distal femur metaphysis X-ray image analysis; format: in vivo, female Sprague Dawley rats (ovariectomized); conditions: oral; for Distal Femur Metaphysis (X-ray Image Analysis-Gray Score), percent protection relative to ovariectomy: daily for 35 days, in 20% hydroxypropyl b-cyclodextrin
Text: Seventy-five day old female Sprague Dawley rats (weight range of 200 to 225 g) were obtained from Charles River Laboratories (Portage, Mich.). The animals were either bilaterally ovariectomized (OVX) or exposed to a Sham surgical procedure at Charles River Laboratories, and then shipped after one week. Upon arrival, they were housed in metal hanging cages in groups of 3 or 4 per cage and had ad libitum access to food (calcium content approximately 0.5%) and water for one week. Room temperature was maintained at 22.2°±1.7° C. with a minimum relative humidity of 40%. The photoperiod in the room was 12 hours light and 12 hours dark. Following the General Preparation Procedure, infra, the rats were treated daily for 35 days (6 rats per treatment group) and sacrificed by carbon dioxide asphyxiation on the 36th day. The 35 day time period was sufficient to allow maximal reduction in bone density, measured as described herein. At the time of sacrifice, the uteri were removed, dissected free of extraneous tissue, and the fluid contents were expelled before determination of wet weight in order to confirm estrogen deficiency associated with complete ovariectomy. […] The uteri were then placed in 10% neutral buffered formalin to allow for subsequent histological analysis. The right femurs were excised and digitilized x-rays generated and analyzed by an image analysis program (NIH image) at the distal metaphysis. The proximal aspect of the tibiae from these animals were also scanned by quantitative computed tomography. In accordance with the above procedures, compounds of the present invention and ethynyl estradiol (EE2) in 20% hydroxypropyl b-cyclodextrin were orally administered to test animals. Distal femur metaphysis data presented in Tables 2 and 3 below are the results of formula I compound treatments compared to intact and ovariectomized test animals. Results are reported as percent protection relative to ovariectomy.

Serum Cholesterol = assay: Serum cholesterol analysis in ovariectomized rats; format: in vivo, female Sprague Dawley rats (ovariectomized); conditions: oral, OVX rats; for inhibition in vivo at 0.1 mg/kg / inhibition in vivo at 1 mg/kg / inhibition in vivo at 10 mg/kg / inhibition in vivo at 0.01 mg/kg: Rattus norvegicus, 96 h, daily for 4 days, read-out: Serum Cholesterol (% decrease vs. OVX)
Text: (§1) Seventy-five day old female Sprague Dawley rats (weight range of 200 to 225 g) were obtained from Charles River Laboratories (Portage, Mich.). The animals were either bilaterally ovariectomized (OVX) or exposed to a Sham surgical procedure at Charles River Laboratories, and then shipped after one week. Upon arrival, they were housed in metal hanging cages in groups of 3 or 4 per cage and had ad libitum access to food (calcium content approximately 0.5%) and water for one week. Room temperature was maintained at 22.2°±1.7° C. with a minimum relative humidity of 40%. The photoperiod in the room was 12 hours light and 12 hours dark.
(§2) Dosing Regimen Tissue Collection. After a one week acclimation period (therefore, two weeks post-OVX) daily dosing with test compound was initiated. 17a-ethynyl estradiol or the test compound were given orally, unless otherwise stated, as a suspension in 1% carboxymethylcellulose or dissolved in 20% cyclodextrin. Animals were dosed daily for 4 days. Following the dosing regimen, animals were weighed and anesthetized with a ketamine: Xylazine (2:1, V:V) mixture and a blood sample was collected by cardiac puncture. The animals were then sacrificed by asphyxiation with CO2, the uterus was removed through a midline incision, and a wet uterine weight was determined.
Cholesterol Analysis. Blood samples were allowed to clot at room temperature for 2 hours, and serum was obtained following centrifugation for 10 minutes at 3000 rpm. Serum cholesterol was determined using a Boehringer Mannheim Diagnostics high performance cholesterol assay. Briefly the cholesterol was oxidized to cholest-4-en-3-one and hydrogen peroxide. The hydrogen peroxide was then reacted with phenol and 4-aminophenazone in the presence of peroxidase to produce a p-quinone imine dye, which was read spectrophotemetrically at 500 nm. Cholesterol concentration was then calculated against a standard curve. The entire assay was automated using a Biomek Automated Workstation.
(§3) The data presented in the Tables 1 below reflects the response of 5 to 6 rats per treatment.

uterus = assay: Wet uterine weight in ovariectomized rats (post-menopausal model); format: in vivo, female Sprague Dawley rats (ovariectomized); conditions: oral, OVX rats; for change in vivo at 0.1 mg/kg / change in vivo at 1 mg/kg / change in vivo at 10 mg/kg / change in vivo at 0.01 mg/kg: Rattus norvegicus, 96 h, daily for 4 days, read-out: Uterine Weight (% increase vs. OVX)
Procedure: In the examples illustrating the methods, a post-menopausal model was used in which effects of different treatments upon circulating lipids were determined.
as §1, §2, §3

[1] = system: Uterine Eosinophil Peroxidase (EPO); assay: Uterine Eosinophil Peroxidase (EPO) Assay; format: in vivo, female Sprague Dawley rats (ovariectomized); design: Uterine EPO (V. max): unit not given here; conditions: oral, daily for 4 days, OVX rats; for Uterine EPO (V. max): 450 nm
Text: as §1, §2
Uterine Eosinophil Peroxidase (EPO) Assay. Uteri were kept at 4° C. until time of enzymatic analysis. The uteri were then homogenized in 50 volumes of 50 mM Tris buffer (pH-8.0) containing 0.005% Triton X-100. Upon addition of 0.01% hydrogen peroxide and 10 mM O-phenylenediamine (final concentrations) in Tris buffer, increase in absorbance was monitored for one minute at 450 nm. The presence of eosonophils in the uterus is an indication of estrogenic activity of a compound. The maximal velocity of a 15 second interval was determined over the initial, linear portion of the reaction curve.
As is expressed in the below data, estrogenicity also was assessed by evaluating the adverse response of eosinophil infiltration into the uterus.
as §3

[2] = system: MCF-7 breast adenocarcinoma cells; assay: MCF-7 Proliferation Assay (tritiated thymidine); format: cell-based; conditions: Homo sapiens, MCF7; MCF-7 cells, 48 hours, tritiated thymidine pulse 4 hours
Procedure: MCF-7 breast adenocarcinoma cells (ATCC HTB 22) were maintained in MEM (minimal essential medium, phenol red-free, Sigma, St. Louis, Mo.) supplimented with 10% fetal bovine serum […] (V/V), L-glutamine (2 mM), sodium pyruvate (1 mM), HEPES {(N-[2-hydroxyethyl]piperazine-N'-[2-ethanesulfonic acid]10 mM)}, non-essential amino acids and bovine insulin (1 ug/mL) (maintenance medium). Ten days prior to assay, MCF-7 cells were switched to maintenance medium supplemented with 10% dextran coated charcoal stripped fetal bovine serum (DCC-FBS) assay medium) in place of 10% FBS to deplete internal stores of steroids. MCF-7 cells were removed from maintenance flasks using cell dissociation medium (Ca++/Mg++ free HBSS (phenol red-free) supplemented with 10 mM HEPES and 2 mM EDTA). Cells were washed twice with assay medium and adjusted to 80,000 cells/mL. Approximately […] (8,000 cells) were added to flat-bottom microculture wells (Costar 3596) and incubated at 37° C. in a 5% CO2 humidified incubator for 48 hours to allow for cell adherence and equilibration after transfer. Serial dilutions of drugs or DMSO as a diluent control were prepared in assay medium and […] to triplicate microcultures followed by […] assay medium for a final volume of […]. After an additional 48 hours at 37° C. in a 5% CO2 humidified incubator, microcultures were pulsed with tritiated thymidine (1 uCi/well) for 4 hours. Cultures were terminated by freezing at -70° C. for 24 hours followed by thawing and harvesting of microcultures using a Skatron Semiautomatic Cell Harvester. Samples were counted by liquid scintillation using a Wallac BetaPlace b counter. Results in Table 3 below show the IC50 for certain compounds of the present invention.

IC50 [2] [nM]	Compound	inhibition in vivo at 0.1 mg/kg (Serum Cholesterol) [%]	change in vivo at 0.1 mg/kg (uterus) [%]	Uterine EPO (V. max) ([1]; 0.1 mg/kg)	inhibition in vivo at 1 mg/kg (Serum Cholesterol) [%]	inhibition in vivo at 10 mg/kg (Serum Cholesterol) [%]	change in vivo at 1 mg/kg (uterus) [%]	change in vivo at 10 mg/kg (uterus) [%]	Uterine EPO (V. max) ([1]; 1.0 mg/kg)	Uterine EPO (V. max) ([1]; 10.0 mg/kg)	further results
–	C#CC1(O)CCC2C3CCc4cc(O)ccc4C3CCC21C (stereo not drawn) [EE2, 17α-ethynyl estradiol, reference compound]	81.4	86.3	116.4	–	–	–	–	–	–	Distal Femur Metaphysis (X-ray Image Analysis-Gray Score), percent protection relative to ovariectomy (Distal Femur Metaphysis; 0.1 mg/kg): 62.4%; Prevention of bone loss (result in words) (Distal Femur Metaphysis; OVX rats, 35 days): prevented this loss; Serum cholesterol (result in words) (Serum Cholesterol; EE2 at 0.1 mg/kg/day): caused a decrease in serum cholesterol; Uterine weight (result in words) (uterus; EE2 at 0.1 mg/kg/day): uterine weight was substantially greater than the uterine weight of ovariectomized test animals; Eosinophil infiltration into the uterus (stromal layer) [1]: substantial, expected increase in eosinophil infiltration
0.7	Oc1ccc2c(c1)OC(c1ccc(OCCN3CCCCC3)cc1)c1c-2oc2cc(O)ccc12 (stereo not drawn) [Example 11, 3,9-Dihydroxy-6-[4-[2-(1-piperidinyl)ethoxy]phenyl]-6-H-benzofuro[3,2-c][1]benzopyran]	17.4	-8.8	2.7	30.9	36.3	3	-12.6	4.2	4.2	–
–	CN(C)CCOc1ccc(C2Oc3cc(O)ccc3-c3sc4cc(O)ccc4c32)cc1 (stereo not drawn) [Example 9, 3,9-Dihydroxy-6-[4-(2-dimethylaminoethoxy)phenyl]-6-H-[1]benzothieno[3,2-c][1]benzopyran]	40.1	77.8	52.2	–	–	–	–	–	–	–
–	Oc1ccc2c(c1)OC(c1ccc(OCCN3CCCC3)cc1)c1c-2sc2cc(O)ccc12 (stereo not drawn) [Example 8, 3,9-Dihydroxy-6-[4-[2-(1-pyrrolidinyl)ethoxy]phenyl]-6-H-[1]benzothieno[3,2-c][1]benzopyran]	38.5	27.4	4.8	68	–	27.2	–	4.8	–	inhibition in vivo at 0.01 mg/kg (Serum Cholesterol): 50.5%; change in vivo at 0.01 mg/kg (uterus): 10.2%; Uterine EPO (V. max) ([1]; 0.01 mg/kg): 2.1
1	Oc1ccc2c(c1)CN(c1ccc(OCCN3CCCCC3)cc1)c1c-2ccc2cc(O)ccc12 [Example 14, 2,8-Dihydroxy-5-[4-[2-(1-piperidinyl)ethoxy]phenyl]-6H-benzo[c]phenanthridine]	59.5	60	5.4	60.7	–	49.1	–	36.0	–	inhibition in vivo at 0.01 mg/kg (Serum Cholesterol): 24.8%; change in vivo at 0.01 mg/kg (uterus): -0.6%; Uterine EPO (V. max) ([1]; 0.01 mg/kg): 2.7
–	c1ccc2c(c1)OC(c1ccc(OCCN3CCCCC3)cc1)c1c-2sc2ccccc12 (stereo not drawn) [Example 7, 6-[4-[2-(1-piperidinyl)ethoxy]phenyl]-6-H-[1]benzothieno[3,2-c][1]benzopyran]	39.8	28.9	4.8	65.5	54	31.2	14.7	6.6	3.6	–
–	Oc1ccc2c(c1)OC(c1ccc(OCCN3CCCCC3)cc1)c1c-2ccc2cc(O)ccc12 (stereo not drawn) [Example 11b, 2,8-Dihydroxy-5-[4-[2-(1-piperidinyl)ethoxy]phenyl]-5H-benzo[b]naphtho[2,1-d]pyran]	66.4	13.6	9.3	73.9	61.4	7.6	-4.1	12.0	7.8	Distal Femur Metaphysis (X-ray Image Analysis-Gray Score), percent protection relative to ovariectomy (Distal Femur Metaphysis; 0.01 mg/kg): 45.6%; Distal Femur Metaphysis (X-ray Image Analysis-Gray Score), percent protection relative to ovariectomy (Distal Femur Metaphysis; 0.1 mg/kg): 38.5%; Distal Femur Metaphysis (X-ray Image Analysis-Gray Score), percent protection relative to ovariectomy (Distal Femur Metaphysis; 1.0 mg/kg): 58.5%; Distal Femur Metaphysis (X-ray Image Analysis-Gray Score), percent protection relative to ovariectomy (Distal Femur Metaphysis; 10.0 mg/kg): 37.3%
100	COc1ccc2c(c1)OC(c1ccc(OCCN3CCCCC3)cc1)c1c-2sc2cc(OC)ccc12 (stereo not drawn) [Example 2, 3,9-Dimethoxy-6-[4-[2-(1-piperidinyl)ethoxy]phenyl]-6-H-[1]benzothieno[3,2-c][1]benzopyran]	–	–	–	–	–	–	–	–	–	–
